In paper PMC7618597, “Dual Nurr1/RXR agonism of valerenic acid and synthetic mimetics enables dimer-selective Nurr1 modulation” (ACS medicinal chemistry letters, 2025):

Assays:
Nurr1 LBD = target: T1, Nurr1 LBD (Homo sapiens, UniProt P43354); assay: Isothermal titration calorimetry, recombinant Nurr1 LBD; type: binding; conditions: ITC
T1 construct: made in house
Procedure: Isothermal titration calorimetry. ITC experiments for ligand binding to Nurr1 and RXR were conducted on an Affinity ITC instrument (TA Instruments, New Castle, DE) at 25 °C with a stirring rate of 75 rpm using recombinantly expressed ligand binding domain proteins as described previously5,6. The respective LBD protein (12–25 μM) in buffer (20 mM Tris pH 7.5, 100 mM NaCl, 5% glycerol) containing 2-4% DMSO was titrated with the test compounds (100-150 μM in the same buffer containing 2-4% DMSO) in 21–26 injections (1 × 1 μL and 20 × 4 to 25 × 4 μL) with an injection interval of 120 s. As control experiments, the test compounds were titrated to the buffer, and the buffer was titrated to the protein under otherwise identical conditions. The heat rates of the compound-Nurr1 LBD titrations were analyzed using NanoAnalyze software (TA Instruments, New Castle, DE) with an independent binding model.

RXRβ = target: T2, RXRβ (Homo sapiens, UniProt P28702); assay: Gal4-hybrid reporter gene assay, RXRβ; type: cell-based; conditions: Gal4-hybrid reporter gene assay; for EC50: mean±S.E.M., n≥3
T2 construct: CMV-hRXRβ-LBD; expressed in transfected cells; host or cells: HEK293T
T2 sequence (P28702 296-529 limits assumed): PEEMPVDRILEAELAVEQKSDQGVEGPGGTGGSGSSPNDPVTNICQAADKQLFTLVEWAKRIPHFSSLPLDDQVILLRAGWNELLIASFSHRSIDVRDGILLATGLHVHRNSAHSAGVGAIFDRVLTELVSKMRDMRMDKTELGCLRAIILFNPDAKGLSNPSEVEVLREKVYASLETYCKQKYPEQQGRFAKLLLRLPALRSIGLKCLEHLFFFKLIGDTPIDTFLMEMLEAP
Procedure: modified Eagle’s medium (DMEM), high glucose supplemented with 10% fetal calf serum (FCS), sodium pyruvate (1 mM), penicillin (100 U/mL), and streptomycin (100 μg/mL) at 37 °C and 5% CO2 and seeded in 96-well plates (3×10^4 cells/well). After 24 h, the medium was changed to Opti-MEM without supplements, and the cells were transiently transfected using Lipofectamine LTX reagent (Invitrogen) according to the manufacturer’s protocol. Five hours after transfection, the cells were incubated with the test compounds in Opti-MEM supplemented with penicillin (100 U/mL), streptomycin (100 μg/mL), and 0.1% DMSO for 15 h before luciferase activity was measured using the Dual -Glo Luciferase Assay System (Promega) according to the manufacturer’s protocol on a Tecan Spark l uminometer (Tecan Deutschland GmbH, Germany). Firefly luminescence was divided by Renilla luminescence and multiplied by 1000, resulting in relative light units (RLU) to normalize for transfection efficiency and cell growth. Fold activation was obtained by dividing the mean RLU of a sample by the mean RLU of the untreated control. All samples were tested in at least three biologically independent experiments in duplicates. For dose –response curve fitting and calculation of EC50 values, the equation “[Agonist] vs. response – Variable slope (four parameters)” was used in GraphPad Prism (version 5.04, GraphPad Software, La Jolla, CA, USA). […] (10 μM, NR4A) and bexarotene (1 µM, NR2B) served as the positive control. […]
150 μM in the same buffer containing 2-4% DMSO) in 21–26 injections (1 × 1 μL and 20 × 4 to 25 × 4 μL) with an injection interval of 120 s. As control experiments, the test compounds were titrated to the buffer, and the buffer was titrated to the protein under otherwise identical conditions. The heat rates of the compound-Nurr1 LBD titrations were analyzed using NanoAnalyze software (TA Instruments, New Castle, DE) with an independent binding model.

T1 sequence (P43354 360-595 limits assumed): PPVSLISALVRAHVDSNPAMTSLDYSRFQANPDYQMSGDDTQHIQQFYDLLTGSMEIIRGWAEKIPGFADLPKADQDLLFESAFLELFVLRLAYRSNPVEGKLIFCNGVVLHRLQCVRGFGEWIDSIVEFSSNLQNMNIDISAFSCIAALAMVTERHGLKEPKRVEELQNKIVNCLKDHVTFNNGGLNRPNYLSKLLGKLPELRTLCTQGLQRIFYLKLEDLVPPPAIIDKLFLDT

SMILES | Kd (Nurr1 LBD) [nM] | max. act. (RXR) β (RXRβ) [fold] | EC50 (RXRβ) [nM]
Cc1c2c(n(-c3ccc(CC(=O)O)cc3)c1C)CCC(F)(F)C2 [compound 2] | 600 | 121±6 | 4500
Cc1c(C)n(-c2ccc(CC(=O)O)cc2)c2ccc(F)cc12 [compound 3] | 600 | 103±6 | 600
